The test deals with T1, human Mnk2a (Homo sapiens, UniProt Q9HBH9).
T1 construct: made in house; host or cells: E. coli BL21 (vector pGEX-4T1)
Description: Mnk2a in vitro kinase assay (indirect fluorescence polarization). In kind it is biochemical. To be noted: GST-Mnk2a pre-activated with ERK2, 20 μM ATP, 30 μM substrate peptide; read-out: MNK2 IC50. How it is done: Inhibitory potency of compounds against Mnk1, Mnk2a and other kinases was assessed with assays based on a format known to those skilled in the art as the indirect (competitive) fluorescence polarization. The assay detection system comprises a small fluorophore-labeled phospho-peptide (termed ligand) bound to a phospho-specific antibody. The product generated by the kinase reaction competes with the ligand for antibody binding. Based on the larger molecular volume of the bound ligand, which results in a lower rotation rate in solution, its emitted light has a higher degree of polarization than the one from the free ligand.
As a source of enzyme, human Mnk1 and human Mnk2a were expressed as GST fusion proteins in E. coli, purified to >80% homogeneity by glutathione affinity chromatography and activated in vitro with pre-activated ERK2. In brief, the open reading frames of human Mnk1 and Mnk2a were amplified from cDNA using the forward/reverse primer pairs
(utilized restriction sites underlined), respectively, and cloned into the BamHI and SalI sites of the vector pGEX-4T1 (Amersham, Sweden, cat. no. 27-4580-01). These constructs allow prokaryotic expression of Mnk1 or Mnk2a as fusion protein with a N-terminal glutathione S-transferase (GST) tag, referred to as GST-Mnk1 or GST-Mnk2a. The following expression and purification procedure was identical for GST-Mnk1 and GST-Mnk2a, referring in general to GST-Mnk, when not distinguishing between the two isoforms. Expression of GST-Mnk was in E. coli BL21 (Merck Biosciences, Germany, cat. no. 69449). Cells were grown in LB-Bouillon (Merck, Germany, cat. no. 1.10285) supplemented with 100 μg/ml ampicillin (Sigma, Germany, cat. no. A9518) at 37° C. When the culture had reached a density corresponding to an A600 of 0.8, an equal volume of ice cold LB/ampicillin was added, the culture transferred to 25° C. and induced for 4 h with 1 mM isopropyl thiogalactoside (IPTG, Roth, Germany, cat. no. 2316.4). Cells harvested by centrifugation were resuspended in 10 ml lysis buffer (50 mM tris(hydroxymethyl)aminomethane hydrochloride (Tris/HCl, Sigma, Germany, cat. no. T5941) pH 7.5, 300 mM sodium chloride (NaCl, Sigma, Germany, cat. no. S7653), 5% (w/v) glycerol (Sigma, Germany, cat. no. G5516), 3 mM DTT dithiotreitol (DTT, Sigma, Germany, cat. no. D9779)) per gram wet weight cell pellet. Lysates were prepared by disruption of cells with a sonifier and subsequent clearing by centrifugation at 38000 g for 45 min at 4° C.
The lysate was applied to a GSTPrep FF 16/10 column (Amersham, Sweden, cat. no. 17-5234-01) equilibrated with lysis buffer. Removal of unbound material was with 3 column volumes (CV) lysis buffer. Elution was with 2 CV of elution buffer (50 mM Tris/HCl pH 7.5, 300 mM NaCl, 5% (w/v) glycerol, 20 mM glutathione (Sigma, Germany, cat. no. G4251)). Peak fractions were pooled and the protein transferred into storage buffer (50 mM Tris/HCl pH 7.5, 200 mM NaCl, 0.1 mM ethylene glycol-bis(2-aminoethylether)-N,N,N′,N′-tetraacetic acid (EGTA, Aldrich, Germany, cat. no. 23, 453-2), 1 mM DTT, 10% (w/v) glycerol, 0.5 M sucrose (Sigma, Germany, cat. no. SO389) by gel filtration on a PD10 desalting column (Amersham, Sweden, cat. no. 17-0851-01). Aliquots were shock frozen in liquid nitrogen and stored at −80° C.
Activation of Mnk1 and Mnk2a was at a concentration of 2.5 μM of either purified GST-Mnk1 or GST-Mnk2a by incubation with 150 nM pre-activated NHis-ERK2 (see ERK2 assay for preparation) and 50 μM adenosine triphosphate (ATP, Sigma, cat. no. A2699) in a buffer comprising 20 mM N-(2-hydroxyethyl)piperazine-N′-(2-ethanesulfonic acid) (HEPES, Fluka, Germany, cat. no 54459)/potassium hydroxide (KOH, Roth, Germany, cat. no 6751.1) pH 7.4, 10 mM magnesium chloride (MgCl2, Sigma, Germany, cat. no. M2670), 0.25 mM DTT, 0.05% (w/v) polyoxyethylene 20 stearylether (Brij 78, Sigma, Germany, cat. no. P4019) (HMDB buffer) for 45 min at 30° C. […]

The structures appear in SMILES notation. Structures can show the parent of a compound that is named as a salt.

The term IC50 denotes the point on the concentration scale where inhibition reaches its midpoint.

T1 sequence (Q9HBH9 whole entry): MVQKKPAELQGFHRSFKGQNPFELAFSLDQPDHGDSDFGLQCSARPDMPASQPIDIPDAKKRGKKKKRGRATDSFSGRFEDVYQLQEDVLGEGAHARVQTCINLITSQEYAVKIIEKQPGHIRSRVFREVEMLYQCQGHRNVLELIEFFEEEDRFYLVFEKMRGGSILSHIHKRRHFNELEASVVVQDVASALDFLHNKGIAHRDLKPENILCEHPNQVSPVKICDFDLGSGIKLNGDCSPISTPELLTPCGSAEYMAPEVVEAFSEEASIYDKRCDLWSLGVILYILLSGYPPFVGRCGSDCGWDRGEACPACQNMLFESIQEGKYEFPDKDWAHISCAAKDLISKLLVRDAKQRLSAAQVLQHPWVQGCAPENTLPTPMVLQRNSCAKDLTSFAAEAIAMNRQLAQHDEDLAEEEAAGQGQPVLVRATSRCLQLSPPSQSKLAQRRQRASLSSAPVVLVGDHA

With `Cc1c(C(=O)NCC2CCOCC2)sc2ncnc(Nc3ccc(F)cc3OC3CCOCC3)c12` [Example 172], the IC50 is 43 nM.

With `Cc1c(C(=O)NCCCCO)sc2ncnc(Nc3ccc(F)cc3OC3CCOCC3)c12` [Example 155], the IC50 amounted to 38 nM.

`Cc1c(C(=O)NCC(C)O)sc2ncnc(Nc3ccc(F)cc3OC3CCOCC3)c12` (stereo not drawn) [Example 158]: the IC50 came out at 42 nM.

As to `Cc1c(C(=O)NCCF)sc2ncnc(Nc3ccc(F)cc3OC3CCCNC3)c12` (stereo not drawn) [Example 18], the IC50 came to 58 nM.

`Cc1c(C(=O)NCC(=O)N2CCCC2)sc2ncnc(Nc3ccc(F)cc3OC3CCOCC3)c12` [Example 201]: the IC50 came to 31 nM.

Take `Cc1c(C(=O)NCCC2CCCN2C)sc2ncnc(Nc3ccc(F)cc3OC3CCOCC3)c12` (stereo not drawn) [Example 119]: the IC50 turned out to be 26 nM.

For `Cc1c(C(=O)NCC(C)(C)O)sc2ncnc(Nc3ccc(F)cc3OC3CCOCC3)c12` [Example 190], the half-inhibitory concentration (IC50) was determined as 66 nM.

On to `Cc1c(C(=O)NC[C@@H]2CCC(=O)N2)sc2ncnc(Nc3ccc(F)cc3OC3CCCNC3)c12` (stereo partly drawn) [Example 51], for which the IC50 amounted to 160 nM.

Turning to `Cc1c(C(=O)NCc2cn(C)cn2)sc2ncnc(Nc3ccc(F)cc3OC3CCOCC3)c12` [Example 184], the IC50 is 22 nM.

Regarding `Cc1c(C(=O)NCC#CCN(C)C)sc2ncnc(Nc3ccc(F)cc3O[C@@H]3CCOC3)c12` [Example 274], the IC50 worked out at 19 nM.

On to `Cc1c(C(=O)N[C@H]2CCC[C@@H]2O)sc2ncnc(Nc3cccnc3OC3CCOCC3)c12` [Compound 278, 5-Methyl-4-[2-(tetrahydro-pyran-4-yloxy)-pyridin-3-ylamino]-thieno[2,3-d]pyrimidine-6-carboxylic acid ((1S,2S)-2-hydroxy-cyclopentyl)-amide], for which the IC50 was found to be 79 nM.

For `COC(=O)c1sc2ncnc(Nc3ccc(F)cc3O[C@H]3C[C@H]4COC(=O)N4C3)c2c1C` [Example 114, 4-[4-Fluoro-2-((6S,7aS)-3-oxo-tetrahydro-pyrrolo[1,2-d]oxazol-6-yloxy)-phenylamino]-5-methyl-thieno[2,3-d]pyrimidine-6-carboxylic acid methyl ester], the IC50 worked out at 550 nM.

Take `CCCOCCNC(=O)c1sc2ncnc(Nc3ccc(F)cc3OC3CCOCC3)c2c1C` [Example 161]: the IC50 stood at 56 nM.

`Cc1c(C(=O)NC2CCN(C)CC2)sc2ncnc(Nc3cccnc3OC3CCOCC3)c12` [Example 281]: the IC50 came to 42 nM.

Consider `Cc1c(C(=O)NCC2(C)CCN(C)C2)sc2ncnc(Nc3ccc(F)cc3OC3CCOCC3)c12` (stereo not drawn) [Example 204], for which the IC50 came out at 66 nM.

In the case of `Cc1c(C(N)=O)sc2ncnc(Nc3ccc(C(F)(F)F)cc3O[C@H]3CCCNC3)c12` [Example 65, 5-Methyl-4-[2-((S)-piperidin-3-yloxy)-4-trifluoromethyl-phenylamino]-thieno[2,3-d]pyrimidine-6-carboxylic acid amide], the IC50 amounted to 190 nM.

Take `Cc1c(C(N)=O)sc2ncnc(Nc3ccc(F)cc3O[C@@H]3CCCN(CC(F)(F)F)C3)c12` [Example 73]: the IC50 came to 5 nM.

On to `Cc1c(C(=O)NCCC[S+](C)[O-])sc2ncnc(Nc3ccc(F)cc3OC3CCOCC3)c12` (stereo not drawn) [Example 236], for which the half-maximal inhibitory concentration (IC50) was found to be 33 nM.

As to `Cc1c(C(=O)NC2CCCNCC2)sc2ncnc(Nc3ccc(F)cc3O[C@H]3CCOC3)c12` (stereo partly drawn) [Example 273, 4-{4-Fluoro-2-[(S)-(tetrahydro-furan-3-yl)oxy]-phenylamino}-5-methyl-thieno[2,3-d]pyrimidine-6-carboxylic acid azepan-4-ylamide trifluoroacetate], the IC50 was 49 nM.

Turning to `Cc1c(C(N)=O)sc2ncnc(Nc3ccc(F)cc3O[C@H]3CCCN(CC(=O)N(C)C)C3)c12` [Example 2], the IC50 is 470 nM.

Turning to `Cc1c(C(N)=O)sc2ncnc(Nc3ccc(F)cc3O[C@@H]3CCCNC3)c12` [Example 71, 4-[4-Fluoro-2-((R)-piperidin-3-yloxy)-phenylamino]-5-methyl-thieno[2,3-d]pyrimidine-6-carboxylic acid amide], the IC50 amounted to 89 nM.

Turning to `CONC(=O)c1sc2ncnc(Nc3cccnc3O[C@@H]3CCCOC3)c2c1C` [Example 261], the IC50 worked out at 46 nM.

For the compound `Cc1c(C(=O)NCC2CCCCC2O)sc2ncnc(Nc3ccc(F)cc3OC3CCCNC3)c12` (stereo not drawn) [Example 40], the IC50 came out at 35 nM.

In the case of `Cc1c(C(=O)NCC#CCN(C)C)sc2ncnc(Nc3cccnc3O[C@@H]3CCCOC3)c12` [Example 264], the concentration for half-maximal inhibition (IC50) amounted to 23 nM.

With `Cc1c(C(=O)NC2CCCNCC2)sc2ncnc(Nc3ccc(F)cc3OC3CCOC3)c12` (stereo in doubt) [Compound 277, 4-{4-Fluoro-2-[(R)-(tetrahydro-furan-3-yl)oxy]-phenylamino}-5-methyl-thieno[2,3-d]pyrimidine-6-carboxylic acid azepan-4-ylamide trifluoroacetate], the IC50 is 59 nM.

`C#CCNC(=O)c1sc2ncnc(Nc3ccc(F)cc3OC3CCOCC3)c2c1C` [Example 229]: the IC50 worked out at 27 nM.

On to `COCCN1CCC[C@H](Oc2cc(F)ccc2Nc2ncnc3sc(C(N)=O)c(C)c23)C1` [Example 1, 4-{4-Fluoro-2-[(S)-1-(2-methoxy-ethyl)-piperidin-3-yloxy]-phenylamino}-5-methyl-thieno[2,3-d]pyrimidine-6-carboxylic acid amide], for which the IC50 turned out to be 490 nM.

For `Cc1c(C(=O)NCCCN2CCC(O)CC2)sc2ncnc(Nc3ccc(F)cc3OC3CCOCC3)c12` [Example 253], the IC50 amounted to 34 nM.

For the compound `Cc1c(C(=O)NC2CCOC2)sc2ncnc(Nc3ccc(F)cc3OC3CCOCC3)c12` (stereo not drawn) [Example 202], the IC50 amounted to 70 nM.

Take `Cc1c(C(=O)NCCCn2ccnc2)sc2ncnc(Nc3ccc(F)cc3OC3CCOCC3)c12` [Example 220]: the IC50 turned out to be 42 nM.

For the compound `Cc1c(C(N)=O)sc2ncnc(Nc3ccc(F)cc3O[C@H]3CCCN(CC(C)C)C3)c12` [Example 7], the IC50 amounted to 4400 nM.

For `Cc1ccc(Nc2ncnc3sc(C(N)=O)c(C)c23)c(O[C@H]2CCCNC2)c1` [Example 68, 4-[4-Methyl-2-((S)-piperidin-3-yloxy)-phenylamino]-5-methyl-thieno[2,3-d]pyrimidine-6-carboxylic acid amide], the IC50 is 80 nM.

`Cc1c(C(=O)NCCc2ccncc2)sc2ncnc(Nc3ccc(F)cc3OC3CCOCC3)c12` [Example 208]: the IC50 turned out to be 59 nM.

Consider `Cc1c(C(=O)NCCCN2CC(F)(F)C2)sc2ncnc(Nc3ccc(F)cc3OC3CCOCC3)c12` [Example 125], for which the IC50 came out at 25 nM.

Turning to `Cc1c(C(=O)NCc2cccnc2)sc2ncnc(Nc3ccc(F)cc3OC3CCOCC3)c12` [Example 213], the IC50 stood at 21 nM.

For `Cc1c(C(=O)NCC[S+](C)[O-])sc2ncnc(Nc3cccnc3OC3CCOCC3)c12` (stereo not drawn) [Example 280], the IC50 stood at 40 nM.

In the case of `Cc1c(C(=O)NC(CO)CO)sc2ncnc(Nc3ccc(F)cc3OC3CCOCC3)c12` [Example 153], the IC50 was 113 nM.

Turning to `Cc1c(C(N)=O)sc2ncnc(Nc3ccc(F)cc3O[C@H]3CCCN(C)C3)c12` [Example 8], the IC50 came out at 80 nM.

On to `CCOCCNC(=O)c1sc2ncnc(Nc3ccc(F)cc3OC3CCOCC3)c2c1C` [Example 160], for which the IC50 was found to be 59 nM.

The values are drawn from patent US8648068B2, “Heterocycloalkyl-containing thienopyrimidines for pharmaceutical compositions” (Boehringer Ingelheim International GmbH, priority 2010, dated 2014).
